According to ChEMBL document CHEMBL1909046, “DrugMatrix in vitro pharmacology data”:

Molecular target: T1, Progesterone receptor (Bos taurus, UniProt Q690N0)
T1 sequence (Q690N0 whole entry): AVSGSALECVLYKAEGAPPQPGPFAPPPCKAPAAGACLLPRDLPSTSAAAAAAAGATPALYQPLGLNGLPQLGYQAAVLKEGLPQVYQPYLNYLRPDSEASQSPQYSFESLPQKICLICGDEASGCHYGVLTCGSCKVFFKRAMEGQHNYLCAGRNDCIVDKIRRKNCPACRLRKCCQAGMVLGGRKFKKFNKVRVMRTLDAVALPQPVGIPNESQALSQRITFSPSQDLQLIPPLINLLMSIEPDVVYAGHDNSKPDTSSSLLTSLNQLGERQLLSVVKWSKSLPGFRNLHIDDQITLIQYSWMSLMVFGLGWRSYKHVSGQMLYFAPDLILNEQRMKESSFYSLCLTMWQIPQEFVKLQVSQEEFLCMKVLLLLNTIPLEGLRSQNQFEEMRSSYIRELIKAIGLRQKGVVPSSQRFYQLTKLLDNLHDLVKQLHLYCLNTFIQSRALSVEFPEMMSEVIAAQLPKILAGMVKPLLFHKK
Assay: DRUGMATRIX: Progesterone radioligand binding (ligand: [3H] R-5020)
Type: tissue-based, Uterus
Settings: Not Active = under 50% inhibition at 10 µM
For CC(=O)OCC(=O)[C@@]1(O)CC[C@H]2[C@@H]3CCC4=CC(=O)CC[C@]4(C)[C@@]3(F)[C@@H](O)C[C@@]21C [FLUDROCORTISONE ACETATE], the IC50 was “Not Active”.
With CCOC(=O)c1ncn2c1CN(C)C(=O)c1cc(F)ccc1-2 [FLUMAZENIL] the IC50 was “Not Active”.
For O=C(O)P(=O)(O)O [FOSCARNET], the IC50 was “Not Active”.
For Cc1ccc(C)c(OCCCC(C)(C)C(=O)O)c1 [GEMFIBROZIL], the IC50 was “Not Active”.
With O=c1c(-c2ccc(O)cc2)coc2cc(O)cc(O)c12 [GENISTEIN] the IC50 was “Not Active”.

Tested on: not listed separately
Assay: DRUGMATRIX: ATPase, Na+/K+ enzyme inhibition (substrate: ATP)
Type: tissue-based, Sus scrofa, Heart
Settings: Not Active = under 50% inhibition at 10 µM
In the case of CC(=O)OCC(=O)[C@@]1(O)CC[C@H]2[C@@H]3CCC4=CC(=O)CC[C@]4(C)[C@@]3(F)[C@@H](O)C[C@@]21C [FLUDROCORTISONE ACETATE], the IC50 is reported as “Not Active” and the Ki is reported as “Not Active”.
For CCOC(=O)c1ncn2c1CN(C)C(=O)c1cc(F)ccc1-2 [FLUMAZENIL], the IC50 was “Not Active” and the Ki was “Not Active”.
For O=C(O)P(=O)(O)O [FOSCARNET], the IC50 was “Not Active” and the Ki was “Not Active”.
For Cc1ccc(C)c(OCCCC(C)(C)C(=O)O)c1 [GEMFIBROZIL], the IC50 was “Not Active” and the Ki was “Not Active”.
In the case of O=c1c(-c2ccc(O)cc2)coc2cc(O)cc(O)c12 [GENISTEIN], the IC50 is reported as “Not Active” and the Ki is reported as “Not Active”.

Molecular target: T2, Vasoactive intestinal polypeptide receptor 1 (Homo sapiens, UniProt P32241); further: in other assays of this panel Not Active means under 50% inhibition at 10 µM
T2 sequence (P32241 whole entry): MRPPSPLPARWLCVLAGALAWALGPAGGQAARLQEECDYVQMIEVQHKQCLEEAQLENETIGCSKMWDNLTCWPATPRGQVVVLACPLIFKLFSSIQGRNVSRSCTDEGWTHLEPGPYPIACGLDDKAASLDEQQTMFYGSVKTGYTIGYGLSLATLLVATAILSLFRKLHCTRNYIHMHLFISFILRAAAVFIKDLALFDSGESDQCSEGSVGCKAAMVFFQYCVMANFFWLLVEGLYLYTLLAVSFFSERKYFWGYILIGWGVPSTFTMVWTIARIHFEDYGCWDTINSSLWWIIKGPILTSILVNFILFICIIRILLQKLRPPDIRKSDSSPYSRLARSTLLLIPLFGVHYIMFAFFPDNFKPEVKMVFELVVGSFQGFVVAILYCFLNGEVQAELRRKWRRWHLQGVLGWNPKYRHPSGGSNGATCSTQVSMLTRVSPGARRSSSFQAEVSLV
Type: cell membranes, Membrane
Settings: ht-29
For CC(=O)OCC(=O)[C@@]1(O)CC[C@H]2[C@@H]3CCC4=CC(=O)CC[C@]4(C)[C@@]3(F)[C@@H](O)C[C@@]21C [FLUDROCORTISONE ACETATE], the IC50 was “Not Active”.
For CCOC(=O)c1ncn2c1CN(C)C(=O)c1cc(F)ccc1-2 [FLUMAZENIL], the IC50 was “Not Active”.
In the case of O=C(O)P(=O)(O)O [FOSCARNET], the IC50 is reported as “Not Active”.
For Cc1ccc(C)c(OCCCC(C)(C)C(=O)O)c1 [GEMFIBROZIL], the IC50 was “Not Active”.
In the case of O=c1c(-c2ccc(O)cc2)coc2cc(O)cc(O)c12 [GENISTEIN], the IC50 is reported as “Not Active”.

Molecular target: T3, Cytochrome P450 1A2 (Homo sapiens, UniProt P05177); further: in other assays of this panel Not Active means under 50% inhibition at 10 µM
T3 sequence (P05177 whole entry): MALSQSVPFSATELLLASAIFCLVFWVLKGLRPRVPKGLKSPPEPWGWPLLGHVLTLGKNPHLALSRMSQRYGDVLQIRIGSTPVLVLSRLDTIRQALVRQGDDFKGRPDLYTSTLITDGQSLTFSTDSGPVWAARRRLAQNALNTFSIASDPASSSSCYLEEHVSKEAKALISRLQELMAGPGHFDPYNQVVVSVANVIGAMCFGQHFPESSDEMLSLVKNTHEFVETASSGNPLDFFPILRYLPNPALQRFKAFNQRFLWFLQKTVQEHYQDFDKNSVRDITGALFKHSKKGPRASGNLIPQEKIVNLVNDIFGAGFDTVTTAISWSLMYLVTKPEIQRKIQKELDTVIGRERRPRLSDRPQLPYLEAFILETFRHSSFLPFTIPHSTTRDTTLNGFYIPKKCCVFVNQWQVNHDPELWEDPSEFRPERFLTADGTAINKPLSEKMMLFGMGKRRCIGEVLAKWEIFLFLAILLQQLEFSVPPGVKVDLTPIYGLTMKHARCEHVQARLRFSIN
Settings: bti-tn-5b1-4
In the case of CC(=O)OCC(=O)[C@@]1(O)CC[C@H]2[C@@H]3CCC4=CC(=O)CC[C@]4(C)[C@@]3(F)[C@@H](O)C[C@@]21C [FLUDROCORTISONE ACETATE], the IC50 is reported as “Not Active” and the Ki is reported as “Not Active”.
In the case of CCOC(=O)c1ncn2c1CN(C)C(=O)c1cc(F)ccc1-2 [FLUMAZENIL], the IC50 is reported as “Not Active” and the Ki is reported as “Not Active”.
For O=C(O)P(=O)(O)O [FOSCARNET], the IC50 was “Not Active” and the Ki was “Not Active”.
For Cc1ccc(C)c(OCCCC(C)(C)C(=O)O)c1 [GEMFIBROZIL], the IC50 was “Not Active” and the Ki was “Not Active”.
For O=c1c(-c2ccc(O)cc2)coc2cc(O)cc(O)c12 [GENISTEIN], the IC50 was “Not Active” and the Ki was “Not Active”.

Molecular target: Nitric oxide synthase 1 (Rattus norvegicus, UniProt P29476); further: in other assays of this panel Not Active means under 50% inhibition at 10 µM
Sequence (P29476 whole entry): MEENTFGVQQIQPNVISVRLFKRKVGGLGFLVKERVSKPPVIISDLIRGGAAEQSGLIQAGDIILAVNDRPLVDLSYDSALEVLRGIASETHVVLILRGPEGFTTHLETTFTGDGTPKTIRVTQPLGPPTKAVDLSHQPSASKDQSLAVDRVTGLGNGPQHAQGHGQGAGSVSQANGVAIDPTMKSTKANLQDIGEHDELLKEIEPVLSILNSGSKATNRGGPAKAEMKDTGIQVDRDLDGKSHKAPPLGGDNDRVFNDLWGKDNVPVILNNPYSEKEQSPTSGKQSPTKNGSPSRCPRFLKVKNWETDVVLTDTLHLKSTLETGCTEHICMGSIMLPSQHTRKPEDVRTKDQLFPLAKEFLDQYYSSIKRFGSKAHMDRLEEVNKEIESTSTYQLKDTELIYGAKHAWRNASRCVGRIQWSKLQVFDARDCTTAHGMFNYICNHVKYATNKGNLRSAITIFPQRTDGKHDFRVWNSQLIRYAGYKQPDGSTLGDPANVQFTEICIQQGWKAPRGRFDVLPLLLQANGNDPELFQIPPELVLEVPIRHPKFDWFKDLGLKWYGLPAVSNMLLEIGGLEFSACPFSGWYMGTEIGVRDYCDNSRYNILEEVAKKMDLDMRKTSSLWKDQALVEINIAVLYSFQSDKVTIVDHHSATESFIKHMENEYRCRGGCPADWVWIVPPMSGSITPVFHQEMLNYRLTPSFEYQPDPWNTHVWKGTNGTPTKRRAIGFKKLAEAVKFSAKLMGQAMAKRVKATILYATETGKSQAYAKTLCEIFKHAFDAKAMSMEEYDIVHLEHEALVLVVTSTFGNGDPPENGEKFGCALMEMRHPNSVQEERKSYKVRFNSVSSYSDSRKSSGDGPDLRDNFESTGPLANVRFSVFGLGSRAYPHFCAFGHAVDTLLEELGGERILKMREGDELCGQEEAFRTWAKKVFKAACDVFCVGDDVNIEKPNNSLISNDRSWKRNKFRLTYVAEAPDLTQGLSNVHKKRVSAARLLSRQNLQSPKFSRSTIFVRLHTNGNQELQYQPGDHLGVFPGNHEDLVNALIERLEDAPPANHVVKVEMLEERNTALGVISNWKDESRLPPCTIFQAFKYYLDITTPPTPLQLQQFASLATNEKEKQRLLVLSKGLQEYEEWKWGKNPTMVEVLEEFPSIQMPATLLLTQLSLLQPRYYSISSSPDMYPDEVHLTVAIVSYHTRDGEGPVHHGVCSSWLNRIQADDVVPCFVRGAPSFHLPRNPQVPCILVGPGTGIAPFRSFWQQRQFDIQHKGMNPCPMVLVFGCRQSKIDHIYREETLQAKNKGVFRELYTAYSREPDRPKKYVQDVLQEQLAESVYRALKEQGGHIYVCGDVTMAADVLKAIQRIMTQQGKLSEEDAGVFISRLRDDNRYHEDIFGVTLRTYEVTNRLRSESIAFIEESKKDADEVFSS
Type: tissue-based, Cerebellum
Settings: not given
For CC(=O)OCC(=O)[C@@]1(O)CC[C@H]2[C@@H]3CCC4=CC(=O)CC[C@]4(C)[C@@]3(F)[C@@H](O)C[C@@]21C [FLUDROCORTISONE ACETATE], the IC50 was “Not Active”.
In the case of CCOC(=O)c1ncn2c1CN(C)C(=O)c1cc(F)ccc1-2 [FLUMAZENIL], the IC50 is reported as “Not Active”.
In the case of O=C(O)P(=O)(O)O [FOSCARNET], the IC50 is reported as “Not Active”.
In the case of Cc1ccc(C)c(OCCCC(C)(C)C(=O)O)c1 [GEMFIBROZIL], the IC50 is reported as “Not Active”.
In the case of O=c1c(-c2ccc(O)cc2)coc2cc(O)cc(O)c12 [GENISTEIN], the IC50 is reported as “Not Active”.

Molecular target: T4, Receptor-type tyrosine-protein phosphatase C (Homo sapiens, UniProt P08575);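 further: inhibition of CD45 enzyme activity measured using DiFMUP as substrate; in other assays of this panel Not Active means under 50% inhibition at 10 µM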
T4 sequence (P08575 whole entry): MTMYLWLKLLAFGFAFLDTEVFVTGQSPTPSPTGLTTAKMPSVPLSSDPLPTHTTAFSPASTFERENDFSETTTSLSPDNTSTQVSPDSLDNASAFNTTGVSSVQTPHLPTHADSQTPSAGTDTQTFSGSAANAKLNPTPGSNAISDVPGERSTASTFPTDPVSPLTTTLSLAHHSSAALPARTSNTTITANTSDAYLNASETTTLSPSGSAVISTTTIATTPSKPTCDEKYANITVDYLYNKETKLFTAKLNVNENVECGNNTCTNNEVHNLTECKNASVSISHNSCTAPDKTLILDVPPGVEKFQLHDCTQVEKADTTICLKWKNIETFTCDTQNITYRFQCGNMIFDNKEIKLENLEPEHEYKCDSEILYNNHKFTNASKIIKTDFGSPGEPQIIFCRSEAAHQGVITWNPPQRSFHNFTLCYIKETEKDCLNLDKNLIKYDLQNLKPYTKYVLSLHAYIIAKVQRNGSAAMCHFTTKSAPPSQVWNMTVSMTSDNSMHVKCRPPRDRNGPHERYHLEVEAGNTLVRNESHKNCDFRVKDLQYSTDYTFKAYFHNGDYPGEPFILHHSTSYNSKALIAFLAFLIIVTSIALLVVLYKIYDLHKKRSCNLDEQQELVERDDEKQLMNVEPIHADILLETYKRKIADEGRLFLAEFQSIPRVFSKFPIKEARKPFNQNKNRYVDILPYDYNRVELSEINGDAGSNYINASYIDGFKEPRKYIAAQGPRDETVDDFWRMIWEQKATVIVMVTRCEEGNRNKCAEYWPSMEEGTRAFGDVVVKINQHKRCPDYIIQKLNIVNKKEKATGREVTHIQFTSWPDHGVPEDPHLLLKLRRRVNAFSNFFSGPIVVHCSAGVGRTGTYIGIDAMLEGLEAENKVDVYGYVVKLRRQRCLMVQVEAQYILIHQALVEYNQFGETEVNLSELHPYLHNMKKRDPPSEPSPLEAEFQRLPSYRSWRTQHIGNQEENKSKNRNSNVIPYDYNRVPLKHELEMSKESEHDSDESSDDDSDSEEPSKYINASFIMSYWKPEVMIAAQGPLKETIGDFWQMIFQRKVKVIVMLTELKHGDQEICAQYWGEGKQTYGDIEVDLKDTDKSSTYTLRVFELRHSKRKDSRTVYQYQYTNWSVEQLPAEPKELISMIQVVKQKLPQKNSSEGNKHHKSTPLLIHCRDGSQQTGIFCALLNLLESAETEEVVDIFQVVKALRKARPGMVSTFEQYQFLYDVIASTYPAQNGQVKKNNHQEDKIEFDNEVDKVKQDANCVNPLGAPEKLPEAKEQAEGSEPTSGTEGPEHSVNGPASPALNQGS
Set-up: species or system Escherichia coli
Settings: not given
For CC(=O)OCC(=O)[C@@]1(O)CC[C@H]2[C@@H]3CCC4=CC(=O)CC[C@]4(C)[C@@]3(F)[C@@H](O)C[C@@]21C [FLUDROCORTISONE ACETATE], the IC50 was “Not Active”.
For CCOC(=O)c1ncn2c1CN(C)C(=O)c1cc(F)ccc1-2 [FLUMAZENIL], the IC50 was “Not Active”.
In the case of O=C(O)P(=O)(O)O [FOSCARNET], the IC50 is reported as “Not Active”.
In the case of Cc1ccc(C)c(OCCCC(C)(C)C(=O)O)c1 [GEMFIBROZIL], the IC50 is reported as “Not Active”.
In the case of O=c1c(-c2ccc(O)cc2)coc2cc(O)cc(O)c12 [GENISTEIN], the IC50 is reported as “Not Active”.
